In patent US9567347B2, “Use of small molecule inhibitors targeting the interaction between RAC GTPase and p67(phox)” (CHILDREN'S HOSPITAL MEDICAL CENTER, priority 2012, dated 2017):
Entries after “also recorded” stand apart in the source; their conditions may differ. Where two headings read alike, the source gives them in different places.

Legend:
[1] = tested on: primary human neutrophils; assay: luminol chemiluminescence assay of fMLP-induced ROS production; format: cell-based
Protocol: HL-60 cells were propagated in RPMI 1640 medium containing 10% heat inactivated fetal bovine serum, 2 mM L-glutamine, 100 U/mL penicillin/streptomycin at 37° C. in air containing 5% CO2. For differentiation, HL-60 cells were cultured in 1.3% dimethyl sulfoxide (DMSO) as previously described (Servant, G., et al. (1999) Mol Biol Cell 10, 1163-1178, hereby incorporated by reference in its entirety). Primary murine neutrophils were isolated from C57Bl/6 mouse bone marrow according to a published protocol (Filippi et al., (2004) Nat Immunol 5, 744-751, hereby incorporated by reference in its entirety) using a discontinuous Percoll (Pharmacia) gradient and were utilized immediately in experiments. Human neutrophils were obtained from fresh blood (IRB #2010-1855, Cincinnati Children's Hospital medical Center) following a well established protocol using density gradient separation from whole blood (Oh et al. (2008) J Vis Exp., 17, pii: 745, hereby incorporated by reference in its entirety). […]
Chemiluminescence was measured using GloMax®-96 Microplate Luminometer (Promega) (Tarpey et al., (2004) Am J Physiol Regul Integr Comp Physiol 286: R431-R444, hereby incorporated by reference in its entirety). […]

[2] = tested on: glucose oxidase-produced ROS; assay: luminol chemiluminescence assay of glucose oxidase-generated ROS; format: cell-based, human
Protocol: Human neutrophils (2×10^5) were stimulated in HBSS supplemented with 0.1% BSA, 1 mM Ca2+, 1 mM Mg2+ and with fMLP (10 μM), PMA (300 nM) or glucose oxidase (200 mU/ml) for 30 min in the presence of 10 μM [8-amino-5-chloro-7-phenylpyrido[3,4-d]pyridazine-1,4(2H,3H)dione] (L012).
Chemiluminescence was measured using GloMax®-96 Microplate Luminometer (Promega) (Tarpey et al., (2004) Am J Physiol Regul Integr Comp Physiol 286: R431-R444, hereby incorporated by reference in its entirety). The generation of […] by the xanthine/xanthine oxidase was performed in PBS supplemented with xanthine oxidase (0.004 U), HRP (0.005 U·mL^−1) and L012, following the protocol described in Wind et al., (2010) Br J Pharmacol. 161, 885-898, hereby incorporated by reference in its entirety. The reaction was started by the addition of xanthine (0.5 mM).

Rac1V12 protein = biological target: T1, Rac1V12 protein (Homo sapiens, UniProt P63000, G12V); assay: microscale thermophoresis binding to Rac1V12; details: various concentrations
T1 construct: GST; made in house
Protocol: (§1) The p67^phox protein was expressed in BL21(DE3) bacteria (Stratagene) using the pET30-HIS p67(1-212) plasmid. Protein was purified using the QIAexpress Ni-NTA kit (Qiagen) or the GST Bind Resin Chromatography Kit (Novagen) for RacV12 and RacWT proteins. Mutagenesis was carried out using the Quick Change Lightening Site Directed Mutagenesis Kit (Stratagene).
(§2) Proteins were labeled for microscale thermophoresis using the Monolith NT Protein Labeling Kit Red (Nano Temper Technologies) as recommended by the manufacturer. Binding reactions were carried out using the Monolith NT. 115 (Nano Temper Technologies). Binding data was analyzed using Graphpad Prizm to estimate Kd values. The arbitrary fluorescence value from the thermophoresis plots for the smallest compound titration was subtracted from every other data point (Delta depletion) prior to normalization to a Vmax of 100. In thermophoresis plots where there was no binding, a curve could not be fit and therefore no Vmax could be assigned. In these instances the highest delta depletion value was set to 100 and all data were normalized accordingly.
(§3) Next, to perform a competition binding, p67^phox protein was first incubated with either 5 μM Phox-I1 or an equal volume of vehicle control for 15 min prior to titration of purified Rac1V12 protein. […]

[3] = tested on: fMLP-stimulated differentiated HL-60 cells; assay: H2-DCFDA FACS ROS production assay in fMLP-stimulated differentiated HL-60 cells; format: cell-based, human; details: for IC50: dHL-60 cells, DCFDA assay; for inhibition of ROS production, Phox-I1 analogs: FIG. 3B
Protocol: HL-60 cells were propagated in RPMI 1640 medium containing 10% heat inactivated fetal bovine serum, 2 mM L-glutamine, 100 U/mL penicillin/streptomycin at 37° C. in air containing 5% CO2. For differentiation, HL-60 cells were cultured in 1.3% dimethyl sulfoxide (DMSO) as previously described (Servant, G., et al. (1999) Mol Biol Cell 10, 1163-1178, hereby incorporated by reference in its entirety). Primary murine neutrophils were isolated from C57Bl/6 mouse bone marrow according to a published protocol (Filippi et al., (2004) Nat Immunol 5, 744-751, hereby incorporated by reference in its entirety) using a discontinuous Percoll (Pharmacia) gradient and were utilized immediately in experiments. Human neutrophils were obtained from fresh blood (IRB #2010-1855, Cincinnati Children's Hospital medical Center) following a well established protocol using density gradient separation from whole blood (Oh et al. (2008) J Vis Exp., 17, pii: 745, hereby incorporated by reference in its entirety).
Cells (5×10^5) were harvested and processed for Annexin V/7AAD staining according to manufacturer's protocol (Becton Dickinson). Flow cytometry data were acquired on a FACS Canto bench-top flow cytometer (Becton Dickinson) and the cell cycle distributions were determined by […] using Flo-Jo software (Bosco et al (2010) Blood 115, 3320-3328, hereby incorporated by reference in its entirety). For ROS production assay, primary murine neutrophils or dHL60 cells were incubated with compound for 2 hours prior to addition of H2-DCFDA according to manufacturer's instructions (Molecular Probes). Cells were then stimulated with 10 μM fMLP (Sigma), 1 mM CaCl2, and 1.5 mM MgCl2 for 15 minutes prior to wash and FACS analysis for mean fluorescence intensity. Non-fMLP stimulated control values were subtracted from all samples before normalization to fMLP-stimulated, vehicle control treated sample in order to display percent ROS inhibition.
To validate the hits from preliminary screening in cells, several cellular functional assays were performed using different cell types to measure the effect of compounds on inhibition of ROS production. ROS levels were first analyzed by fluorescence-activated cell sorting (FACS) in HL-60 pre-incubated with compounds for 2 hr prior to stimulation of ROS production. The p67^phox inhibitor, Phox-I1, was tested against NAC (a ROS scavenger), DPI (a broad range inhibitor of NADPH oxidase), and NSC23766 (a Rac-GTP inhibitor; FIG. 2A). […] H2O2 added to the cells was included as a positive control for ROS measurement. Second, to test the capacity of Phox-I1 to inhibit ROS production in a primary cell context, primary murine neutrophils isolated from mouse bone marrow were treated with increasing concentrations of Phox-I1 and the efficacy of inhibition of fMLP-stimulated ROS production was analyzed. DPI treatment was included as a positive control for inhibition of ROS production (FIG. 2B). […] Next, to ascertain the optimal effective dose for ROS inhibition in cells, a dose titration series of Phox-I1 was administered to dHL-60 cells (FIG. 2C).

p67^phox mutation, R188A = biological target: T2, p67^phox mutation, R188A (Homo sapiens, UniProt P19878, R188A); assay: microscale thermophoresis binding to p67phox R188A mutant; details: residue outside region critical for Rac1-GTP interaction
T2 construct: using the pET30-HIS p67(1-212) plasmid; His; made in house; host or cells: E. coli BL21(DE3)
T2 sequence (P19878 1-212 R188A): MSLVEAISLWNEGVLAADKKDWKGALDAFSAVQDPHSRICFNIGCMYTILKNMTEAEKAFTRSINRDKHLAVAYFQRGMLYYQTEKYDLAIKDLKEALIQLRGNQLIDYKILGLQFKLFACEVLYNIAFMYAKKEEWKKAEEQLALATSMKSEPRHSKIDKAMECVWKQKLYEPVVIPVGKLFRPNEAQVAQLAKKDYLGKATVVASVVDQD
Protocol: as §1, §2, §3

IC50 ([1]; Neutrophil) [µM]	effect on glucose oxidase-produced ROS [2]	IC50 ([3]; Homo sapiens, HL-60) [µM]	binding to p67^phox R188 mutant (p67^phox mutation, R188A)	IC50 [1] [µM]	IC50 [3] [µM]	SMILES	binding to Rac1V12 (Rac1V12 protein)	ROS production compared to standard ROS inhibitors ([3]; 20 μM, pre-incubated 2 hr)	dose of optimal cellular response ([3]; dose titration in dHL-60 cells) [µM]	inhibition of ROS production, Phox-I1 analogs ([3]; pre-incubated 2 hr)	inhibition of ROS production, Phox-I1 analogs ([3]; pre-incubated 2 hr, listed as Analog 16)	inhibition of ROS production, Phox-I1 analogs ([3]; pre-incubated 2 hr, listed as analog 16)
~8	did not affect	~3	retained the binding activity	–	–	COc1ccc2c(c1)C1C=C(c3ccccc3)NN1C(c1cccc([N+](=O)[O-])c1)O2 (stereo not drawn) [Phox-I1]	unable to bind; also recorded: no detectable binding	able to attenuate ROS production	10	greatest inhibition of ROS production	–	–
–	–	–	–	~6	~1	O=[N+]([O-])c1cccc(C2Nc3ccc([N+](=O)[O-])cc3C3C=CCC32)c1 (stereo not drawn) [Phox-I2]	–	–	–	–	improved ROS inhibition over Phox1	greatest inhibition of ROS production
